This is an account of results in US6699834B1, “Method for treating cancer” (University of Maryland Biotechnology Institute, priority 1997, dated 2004).

Bridge positions count the residues as written; N and C are the ends. Ends that are not written are not given here.

One assay concerns KS Y-1 and KS-SLK cells. Kind of assay: Kaposi's Sarcoma clonogenic assay in cultured cells. In kind it is cell-based, human. Particulars: for inhibition of KS cell growth in clonogenic assays (in words): KS Y-1 and KS SLK. The procedure, abridged:
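KS Y-1 or KS-SLK cells, 5×10^4 seeded in 0.8% methylcellulose, grown 10 days with or without hCG, β-hCG or β-hCG peptide preparations; well-formed colonies counted in triplicate wells.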

The test system of assay [1] is prostate cancer cells. Kind of assay: Prostate cancers induced in nude mice. In kind it is in vivo. The settings on record: peptide 200 μg per day, hCG APL 100 IU per day, systemic.
Another assay has as its system HIV-1 transgenic mice. Kind of assay: Survival, growth and weight of HIV-1 transgenic mouse pups. The assay is classed as in vivo. As to the method: (§1) The HIV-1 transgenic mice used for this study contain 7.4 kb of foreign DNA, including 5.1 kb of the HIV-1 proviral genome deleted in the gag and pol genes and 2.3 kb of vector (Dickie et al., 1991, Virology 185:109-119). […] In addition, these mice develop severe hyperkeratotic skin lesions with marked expression of gp 120 and nef genes (Kopp et al., 1993, AIDS Res. Hum. Retroviruses 9:267-275; Vasli et al., 1994, AIDS Res. Hum. Retroviruses 10:1241-1250).
(§2) Finally, certain fractions were tested for their ability to increase survival, promote weight gain and reduce HIV-1 gene expression in HIV-1 transgenic mice as described herein.
HIV-I transgenic pups administered hCG and hCG-related preparations for the first 5 days after birth through the mothers milk were monitored for survival at 10 days after birth.

Assay [2] has as its system lung cancer cells. Kind of assay: Trypan blue cell death assay, lung cancer cells. In kind it is cell-based. As to the method:
(§3) The hCG preparations, fractions of the early pregnancy urine and hCG APL™ SUPERDEX™ 200 fractionations (described herein), and certain β-hCG peptides were tested on prostate, lung, breast, and kidney cancer cells in vitro, and on prostate tumors in nude mice. […] The preparations fractions and peptides were also assayed using a clonogenic assay in which cells were seeded in methylcellulose in the presence or absence of test substance and then colonies were counted after a certain period of time. Cells were also examined for apoptosis by confocal microscopy.
The effects of hCG preparations, hCG fractions and β-hCG peptides were tested in lung cancer cells in vitro. Lung cancer cells were incubated with the hCG preparations, hCG fractions and β-hCG peptides in both the trypan blue viability assay and the clonogenic assay.

The test system of assay [3] is HIV RNA and protein expression. Kind of assay: HIV RNA and protein expression in HIV-1 transgenic mice. The assay is classed as in vivo.
Description: as §1
Heterozygous transgenic mothers were treated with the hCG preparation subcutaneously twice weekly. Pups received hCG via the mother's milk.
Gene expression was assayed in total RNA extracted from the skin of Tg26 mice with RNAzol. One microgram of RNA was reverse transcribed into cDNA using random hexamer primers and […] reverse transcriptase (Life Technologies, MD) in a final volume of 30 μl. One tenth of the cDNA reactions were used for PCR amplification of various HIV gene sequences (env, tat, rev, nef and vif). In addition, glyceraldehyde 3-phosphate dehydrogenase (GAPHD) mRNA was amplified for each sample for normalization. Following 25 cycles of amplification, 10% of the PCR product was resolved by electrophoresis through 2% agarose gels and processed for Southern hybridization using FITC-labeled oligonucleotide probes complimentary to internal sequences of the amplicons. Detection was performed by chemiluminescence (Amersham) and relative mRNA levels determined by densitometry after normalization with GAPDH mRNA levels.
as §2

Assay [4] deals with lung cancer cells. Kind of assay: Clonogenic assay, lung cancer cells. The assay is classed as cell-based. Particulars: compared to PBS alone. As to the method:
as §3

Assay [5] concerns prostate cancer cells. Kind of assay: Apoptosis by confocal microscopy, prostate cancer cells. The settings on record: 48 hours. In kind it is cell-based. As to the method: The preparations fractions and peptides were also assayed using a clonogenic assay in which cells were seeded in methylcellulose in the presence or absence of test substance and then colonies were counted after a certain period of time. Cells were also examined for apoptosis by confocal microscopy. FIGS. 18A-H show confocal micrographs of prostate cancer cells treated with an hCG or hCG related preparation and then stained with FITC-labelled actin monoclonal antibody to visualize the cytoskeleton and propidium iodine to visualize the cell nucleus. Condensation of the nucleus and damage to the cytoskeleton are indications of apoptosis.

For the substance “4. Circ 44-57: β-hCG 44-57 with cysteine substituted at position 44, circularized via disulfide bond (SEQ ID NO:26) (CLQGVLPALPQVVC; disulfide 1-14 (inferred))”, the “inhibition of KS cell growth in clonogenic assays (in words)” value is “strongest anti-tumor effects” in the assay on KS Y-1 and KS-SLK cells (listed as cyclic 44-57); “inhibited KS cell growth” with KS Y-1 and KS-SLK cells (listed as cyclized β-hCG peptide of amino acids 44-57). For the same substance, in the assay with KS Y-1 and KS-SLK cells (inhibition of Kaposi's Sarcoma cell growth in vitro in cultured cells), the KS in vitro entry is listed as “+++ (“+++” represents greater than 70% effect)”. Also, the “apoptosis of prostate cancer cells in vivo” value in the assay with prostate cancer cells [1] is listed as “caused apoptosis of the prostate cancer cells in vivo”. Besides, the “weight gain / growth retardation and cachexia” value in the assay on HIV-1 transgenic mice (HIV-1 transgenic pups) is recorded as “higher weight gain than untreated mice”. In the assay with HIV-1 transgenic mice (administered first 5 days after birth through mothers milk), the “survival at 10 days after birth” value was “promote survival”. The “inhibition of HIV-1 infection/replication in vitro (in words)” value in the assay with HIV-1 was “inhibit HIV-1 replication in vitro”. The “HIV in vitro Inhibition” value with HIV-1 (inhibition of HIV-1 replication in vitro (HIV-1 strains and HIV-1 primary isolates)) is “+++ (“+++” represents greater than 70% effect)”. The “% dead cells” value came to 42% in the assay with lung cancer cells [2] (200 μg/ml) and 59% in the assay on lung cancer cells [2] (300 μg/ml). Further, the “inhibition of HIV RNA and protein expression” value in assay [3] (inhibition of HIV RNA and protein expression in HIV-1 transgenic mice) was “+++ (“+++” represents greater than 70% effect)”. Besides, the “HIV-1 gene / protein expression in transgenic mice (in words)” value in assay [3] (pups dosed via mother's milk) is listed as “considerable inhibition”. Besides, in the assay on lung cancer cells [4], the colony formation entry is “inhibited colony formation”. In the assay with prostate cancer cells [5], the apoptosis entry is listed as “increased apoptosis”.
